Our source for the logP values is ChEMBL document CHEMBL4196028, “Synthesis and biological evaluation of 20-epi-amino-20-deoxysalinomycin derivatives” (Eur J Med Chem, 2018).

SMILES strings stand for the structures.

This data set in a line: physchem. The conditions noted are these: n-octanol/water.
On to `CC[C@@H](C(=O)[C@@H](C)[C@@H](O)[C@H](C)[C@@H]1O[C@@H]([C@@H](CC)C(=O)O)CC[C@@H]1C)[C@H]1O[C@]2(C=C[C@H](NC(=O)OCc3ccccc3)[C@]3(CC[C@@](C)([C@H]4CC[C@](O)(CC)[C@H](C)O4)O3)O2)[C@H](C)C[C@@H]1C`, for which the lipophilicity (logP) came to 1.77.

Consider `CC[C@@H](C(=O)[C@@H](C)[C@@H](O)[C@H](C)[C@@H]1O[C@@H]([C@@H](CC)C(=O)OCC[Si](C)(C)C)CC[C@@H]1C)[C@H]1O[C@]2(C=C[C@H](n3cc(COC(C(F)(F)F)(C(F)(F)F)C(F)(F)F)nn3)[C@]3(CC[C@@](C)([C@H]4CC[C@](O)(CC)[C@H](C)O4)O3)O2)[C@H](C)C[C@@H]1C`, for which the logP came out at 1.95.

On to `CC[C@@H](C(=O)[C@@H](C)[C@@H](O)[C@H](C)[C@@H]1O[C@@H]([C@@H](CC)C(=O)O)CC[C@@H]1C)[C@H]1O[C@]2(C=C[C@@H](O)[C@]3(CC[C@@](C)([C@H]4CC[C@](O)(CC)[C@H](C)O4)O3)O2)[C@H](C)C[C@@H]1C` [SALINOMYCIN], for which the logP worked out at 2.21.
